Test results reported in US20250127774A1, “COMPOUNDS FOR LABELLING NUCLEIC ACID AND USES THEREOF” (THE ROYAL INSTITUTION FOR THE ADVANCEMENT OF …, priority 2022, published 2025).
Where two headings read alike, the source gives them in different places.

Experiments:
[1] = system: duplex DNA containing VdU (vinyl-modified ODN); experiment: Kinetic measurements with ODNs (DNA-templated PINK-VdU reaction); settings: 50 mM aq. NaOAc buffer pH 5.2 (0.8% DMSO)
Text: A) Relative fluorescence units (RFU) of PINK upon reaction with vinyl-modified ODN versus time. […] B) Normalized increase of fluorescence. C) Plot of the observed rates k′ against PINK concentration. The slope yields the rate constant k.
To characterize DNA-templated PINK-VdU reactions, a VdU-containing, palindromic 17-mer DNA oligonucleotide “ODN1” was synthesized (Table 1). The DMT-protected VdU phosphoramidite S4 (Scheme 2)^[51] was incorporated into the oligomer utilizing standard solid phase supported DNA synthesis. ODN1 was purified using reverse-phase HPLC and annealed with a complimentary strand to form a duplex. […] By tracking the fluorescence changes under pseudo-first order conditions (FIG. 8), an apparent rate constant k=590 M^−1 s^−1 was determined for the reaction between PINK and the duplex DNA containing VdU. […]
Kinetic Measurements with ODNs. Second-order rate constants for the reaction between vinyl-modified ODN and PINK were determined under pseudo first order conditions employing an excess of the tetrazine. […] Measurements were performed on a SpectraMax M5 plate reader (Molecular Devices, Sunnyvale, CA, USA) in 384 well plates (Greiner bio-one, cat-#871906; 40 μL per well). […] Samples were measured over the course of 1 h in intervals of 45 s. […] Reactions rates were calculated using pseudo first order approximations fitting the measurements to mono exponential equations. […]

[2] = Kinetic measurements with the VdU nucleoside (non-templated IEDDA reaction); settings: 50 mM aq. NaOAc buffer pH 5.2 (27% DMSO)
Experimental: A) Fluorescence increase versus time upon mixing PINK with VdU. […] B) Normalized increase of fluorescence. C) Plot of the observed rates k′ versus PINK concentrations. The slope yields the rate constant k.
PINK (4) undergoes a highly fluorogenic and regioselective IEDDA reaction with VdU (5) to give “PINK-VdU-ox” (6) as a single isomer in a 76% isolated yield after 7d at 60° C. (Scheme 1). The slow rate of this non-templated reaction (Kapp=0.01 M^−1 s^−1, FIG. 5) is due to the combination of an unstrained terminal alkene and unactivated tetrazine.^[49] Over the course of the reaction, a ˜100-fold increase in fluorescence was observed (FIG. 3, c). […]
Kinetic Measurements with the VdU Nucleoside. Second order reaction rates between PINK and VdU were determined under pseudo first order conditions with a large excess of the dienophile over the tetrazine. […] Measurements were performed on a SpectraMax M5 plate reader (Molecular Devices, Sunnyvale, CA, USA) in 384 well plates (Greiner bio-one, cat-#871906; 50 μL per well; covered with 20 μL spectroscopic grade silicon oil to avoid evaporation). […] Samples were measured over 18 h in intervals of 10 min. […] Reactions rates were calculated using pseudo first order approximations fitting the measurements to mono exponential equations. The reported reaction rate is an arithmetic mean determined from three independent experiments.

MOLM-13 cells = experiment: Resazurin combination toxicity assay; type: cell-based, human; settings: Homo sapiens, MOLM-13, MOLM-13; variable VdU/VdA alone or with 1 μM PINK added 24 h post nucleoside addition; read-out: IC50 value (48 h) for sequential addition
Experimental: (§1) From the single toxicity experiment, it was determined that the optimal subtoxic concentration of PINK to be used for the combination toxicity assays would be 1 μM. To test how effective the vinyl-nucleosides (VdU/VdA) in combination with PINK are at killing the cells compared to the vinyl-nucleosides alone, another resazurin reduction assay was carried out.
(§2) Resazurin Combination toxicity assays. MV4-11, MOLM-13 and Jurkat cells were seeded in 96-well plates at a density of 20 000 cells/well, 25 000 cells/well and 30 000 cells/well, respectively, in triplicates. For the sequential addition, the cells were first treated with the nucleosides (VdU/VdA) diluted in fresh media in 1:4 serial dilutions (˜0.01% DMSO) at concentrations of 500-0 μM, and incubated overnight. 24h post nucleoside addition, the cells were treated with 1 μM PINK diluted in fresh media (˜1% DMSO), and incubated for 24-72h. The cells were treated with resazurin, incubated and measured, as described above. For the simultaneous addition, the cells were treated with nucleosides and PINK on the same day at the same concentrations as describes above, and incubated for 24-72h.

MV4-11 cells = experiment: Resazurin combination toxicity assay; type: cell-based; settings: Homo sapiens
Experimental: as §1
(§3) To determine if it is possible to treat the leukemia cells with the vinyl-nucleosides and PINK simultaneously, instead of adding them sequentially, another resazurin reduction assay using the same concentrations of each compound as in the previous combination experiment was carried out, where instead the vinyl-nucleosides and PINK were added on the same day instead of on two consecutive days.
as §2

Jurkat cells = experiment: Resazurin combination toxicity assay; type: cell-based; settings: Homo sapiens
Experimental: as §1, §3, §2

[3] = 48 h, variable VdU/VdA alone or with 1 μM PINK added on the same day, read-out: IC50 value (48 h) for simultaneous addition
[4] = variable VdU/VdA alone or with 1 μM PINK added 24 h post nucleoside addition, read-out: IC50 value (48 h) for sequential addition

SMILES | apparent rate constant k, reaction with duplex DNA containing VdU ([1]; 4 μM vinyl-modified ODN, PINK 3-5 eq) [M⁻¹ s⁻¹] | stability of PINK under control conditions (without vinyl-modified ODN) ([1]; 12-20 μM PINK, 1 h) | rate of non-templated reaction (Kapp) ([2]; 100 μM PINK, 1-5 mM VdU) [M⁻¹ s⁻¹] | stability of PINK under control conditions (0 mM VdU) ([2]; 18 h) | IC50 (MOLM-13 cells) [µM] | IC50 (MV4-11 cells; [3]) [µM] | IC50 (MV4-11 cells; [4]) [µM] | IC50 (Jurkat cells; [3]) [µM] | IC50 (Jurkat cells; [4]) [µM]
Cc1nnc(-c2ccc3cc4ccc(N(C)C)cc4nc3c2)nn1 [PINK] | 590 | full stability | 0.01 | full stability | – | – | – | – | –
C=Cc1cn([C@H]2C[C@H](O)[C@@H](CO)O2)c(=O)[nH]c1=O [VdU, 5-vinyl-2′-deoxyuridine] | – | – | – | – | 18 | 124 | 60 | 404 | 58
